Data from ChEMBL document CHEMBL6134821, “Design, synthesis, and biological evaluation of novel BTK-targeting proteolysis targeting chimeras (PROTACs) with enhanced pharmacokinetic properties” (Eur J Med Chem, 2025).
The source made the active and inactive calls. The rule behind the calls is not given here.

How the values were obtained:
[1] = Toxicity in mouse at 30 mg/kg, ip measured for 0.083 to 24 hrs by LC-MS/MS analysis; type: organism-based; settings: in vivo, time 0.083-24 hrs
[2] = molecular target: T1, Protein cereblon/Tyrosine-protein kinase BTK (Homo sapiens, UniProt Q06187+Q96SW2); assay: PROTAC activity at CRBN/BTK in human JeKo-1 cells assessed as BTK degradation at 10 nM incubated for 24 hrs by Western blot analysis relative to control; type: cell-based
Target sequence in this assay (Q06187 2-659 limits assumed): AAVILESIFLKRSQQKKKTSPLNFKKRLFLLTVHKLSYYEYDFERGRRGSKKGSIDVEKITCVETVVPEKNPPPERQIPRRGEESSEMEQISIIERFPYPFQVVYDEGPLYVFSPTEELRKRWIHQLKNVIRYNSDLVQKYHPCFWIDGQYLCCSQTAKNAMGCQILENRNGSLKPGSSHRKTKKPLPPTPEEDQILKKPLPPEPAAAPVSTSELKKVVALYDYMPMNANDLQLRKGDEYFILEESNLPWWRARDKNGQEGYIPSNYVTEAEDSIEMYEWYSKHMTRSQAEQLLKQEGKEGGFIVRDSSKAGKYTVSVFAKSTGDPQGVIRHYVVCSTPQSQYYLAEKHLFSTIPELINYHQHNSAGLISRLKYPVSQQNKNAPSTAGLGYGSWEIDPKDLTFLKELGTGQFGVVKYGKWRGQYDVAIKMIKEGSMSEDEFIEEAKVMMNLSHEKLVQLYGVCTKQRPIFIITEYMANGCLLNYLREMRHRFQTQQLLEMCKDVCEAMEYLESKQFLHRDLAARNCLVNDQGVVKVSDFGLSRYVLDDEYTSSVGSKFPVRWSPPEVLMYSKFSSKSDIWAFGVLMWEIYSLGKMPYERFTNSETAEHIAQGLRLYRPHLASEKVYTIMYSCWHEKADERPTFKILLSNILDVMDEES
Target sequence in this assay (Q96SW2 whole entry partner): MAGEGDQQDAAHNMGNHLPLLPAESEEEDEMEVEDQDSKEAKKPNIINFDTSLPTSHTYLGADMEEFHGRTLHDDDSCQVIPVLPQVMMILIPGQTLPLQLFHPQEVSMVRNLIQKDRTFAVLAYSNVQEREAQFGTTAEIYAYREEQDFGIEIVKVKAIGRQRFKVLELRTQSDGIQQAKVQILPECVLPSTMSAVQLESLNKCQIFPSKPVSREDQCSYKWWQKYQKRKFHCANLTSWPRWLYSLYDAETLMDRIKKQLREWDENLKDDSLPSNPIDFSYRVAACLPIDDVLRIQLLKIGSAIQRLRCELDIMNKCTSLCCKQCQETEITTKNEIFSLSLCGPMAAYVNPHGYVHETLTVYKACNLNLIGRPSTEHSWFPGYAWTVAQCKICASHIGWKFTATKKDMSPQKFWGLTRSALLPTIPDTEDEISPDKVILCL

[3] = molecular target: Protein cereblon/Tyrosine-protein kinase BTK (Homo sapiens, UniProt Q06187+Q96SW2, C481S); assay: (§1) PROTAC activity at CRBN/BTK C481S mutant (unknown origin) expressed in human TMD8 cells assessed as BTK degradation measured after 24 hrs by Western blot analysis; type: cell-based
Protein cereblon/Tyrosine-protein kinase BTK (Homo sapiens, UniProt Q06187+Q96SW2, C481S), sequence (Q06187 whole entry, looked up, stated change not applied): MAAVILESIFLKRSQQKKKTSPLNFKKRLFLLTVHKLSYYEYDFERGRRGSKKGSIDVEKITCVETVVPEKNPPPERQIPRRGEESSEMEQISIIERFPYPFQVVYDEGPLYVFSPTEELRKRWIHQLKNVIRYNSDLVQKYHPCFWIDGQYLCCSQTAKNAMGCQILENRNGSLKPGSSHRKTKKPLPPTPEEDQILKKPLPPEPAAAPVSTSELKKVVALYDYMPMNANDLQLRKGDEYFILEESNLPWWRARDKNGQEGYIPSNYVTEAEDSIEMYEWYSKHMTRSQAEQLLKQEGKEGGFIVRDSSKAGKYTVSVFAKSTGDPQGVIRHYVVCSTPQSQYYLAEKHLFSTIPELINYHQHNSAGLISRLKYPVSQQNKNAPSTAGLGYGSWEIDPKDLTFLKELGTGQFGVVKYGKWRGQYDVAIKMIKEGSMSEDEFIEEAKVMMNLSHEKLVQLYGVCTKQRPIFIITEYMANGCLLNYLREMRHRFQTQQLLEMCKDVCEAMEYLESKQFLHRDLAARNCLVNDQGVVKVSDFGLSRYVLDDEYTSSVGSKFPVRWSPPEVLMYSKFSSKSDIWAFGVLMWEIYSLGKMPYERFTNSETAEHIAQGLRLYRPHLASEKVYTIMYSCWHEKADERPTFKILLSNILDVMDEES
Protein cereblon/Tyrosine-protein kinase BTK (Homo sapiens, UniProt Q06187+Q96SW2, C481S), sequence (Q96SW2 whole entry, looked up, stated change not applied): as the sequence (Q96SW2 whole entry partner) above

[4] = test system: Protein cereblon/Tyrosine-protein kinase BTK (Homo sapiens), Q06187+Q96SW2 [C481S]; assay: as §1; type: cell-based; settings: dose 0.1-1000 nM
[5] = molecular target: T1, Protein cereblon/Tyrosine-protein kinase BTK; assay: PROTAC activity at CRBN/BTK in human JeKo-1 cells assessed as BTK degradation incubated for 8 hrs by Western blot analysis; type: cell-based; settings: dose 0.1-1000 nM
Target sequence in this assay (Q06187 2-659 limits assumed): as the sequence (Q06187 2-659 limits assumed) above
Target sequence in this assay (Q96SW2 whole entry partner): as the sequence (Q96SW2 whole entry partner) above

[6] = Microsomal stability in human liver microsomes assessed as half life measured up to 60 mins in presence of NADPH by LC-MS/MS analysis; type: ADME, Microsome
[7] = test system: JeKo-1; assay: Effect on IKZF3 level in human JeKo-1 cells at 0.1 to 1000 nM incubated for 8 hrs by Western blot analysis; type: functional, cell-based; settings: dose 0.1-1000 nM
[8] = Microsomal stability in human liver microsomes assessed as intrinsic clearance in microsomes measured up to 60 mins in presence of NADPH by LC-MS/MS analysis; type: ADME, Microsome; settings: read-out: CLH
[9] = test system: JeKo-1; assay: Downregulation of BLK level in human JeKo-1 cells at 100 nM incubated for 4 hrs by Label-free MS proteomics analysis; type: functional, cell-based
[10] = molecular target: T1, Protein cereblon/Tyrosine-protein kinase BTK; assay: PROTAC activity at CRBN/BTK in human JeKo-1 cells assessed as BTK degradation at 100 nM incubated for 4 hrs by Label-free MS proteomics analysis; type: cell-based
Target sequence in this assay (Q06187 2-659 limits assumed): as the sequence (Q06187 2-659 limits assumed) above
Target sequence in this assay (Q96SW2 whole entry partner): as the sequence (Q96SW2 whole entry partner) above

[11] = molecular target: T1, Protein cereblon/Tyrosine-protein kinase BTK; assay: PROTAC activity at CRBN/BTK in human JeKo-1 cells assessed as BTK degradation at 100 nM by Western blot analysis; type: cell-based; settings: time 1-24 hrs
Target sequence in this assay (Q06187 2-659 limits assumed): as the sequence (Q06187 2-659 limits assumed) above
Target sequence in this assay (Q96SW2 whole entry partner): as the sequence (Q96SW2 whole entry partner) above

[12] = Toxicity in mouse at 2 mg/kg, iv measured for 0.083 to 24 hrs by LC-MS/MS analysis; type: organism-based; settings: in vivo, time 0.083-24 hrs
[13] = molecular target: T1, Protein cereblon/Tyrosine-protein kinase BTK; assay: PROTAC activity at CRBN/BTK in human JeKo-1 cells assessed as BTK degradation incubated for 24 hrs by Western blot analysis; type: cell-based; settings: for Activity: dose 0.01-1000 nM
[14] = molecular target: T1, Protein cereblon/Tyrosine-protein kinase BTK; assay: PROTAC activity at CRBN/BTK in human JeKo-1 cells assessed as BTK degradation at 10 nM incubated for 24 hrs in presence of bortezomib by Western blot analysis; type: cell-based
Target sequence in this assay (Q06187 2-659 limits assumed): as the sequence (Q06187 2-659 limits assumed) above
Target sequence in this assay (Q96SW2 whole entry partner): as the sequence (Q96SW2 whole entry partner) above

[15] = Cytotoxicity against human TMD8 cells harboring BTK C481S mutant assessed as inhibition of cell viability incubated for 5 days by CCK8 assay; type: functional, cell-based; settings: TMD8, 120 h
[16] = molecular target: T1, Protein cereblon/Tyrosine-protein kinase BTK; assay: PROTAC activity at CRBN/BTK in human JeKo-1 cells assessed as BTK degradation at 30 nM incubated for 24 hrs by Western blot analysis relative to control; type: cell-based
Target sequence in this assay (Q06187 2-659 limits assumed): as the sequence (Q06187 2-659 limits assumed) above
Target sequence in this assay (Q96SW2 whole entry partner): as the sequence (Q96SW2 whole entry partner) above

[17] = Drug concentration in plasma of mouse at 30 mg/kg, ip measured after 24 hrs by LC-MS/MS analysis; type: ADME, organism-based
[18] = molecular target: T1, Protein cereblon/Tyrosine-protein kinase BTK; assay: PROTAC activity at CRBN/BTK in human JeKo-1 cells assessed as BTK degradation at 100 nM measured after 4 hrs by Western blot analysis relative to control; type: cell-based
[19] = test system: JeKo-1; assay: Downregulation of CSK level in human JeKo-1 cells at 100 nM incubated for 4 hrs by Label-free MS proteomics analysis; type: functional, cell-based
[20] = test system: JeKo-1; assay: Effect on IKZF1 level in human JeKo-1 cells at 0.1 to 1000 nM incubated for 8 hrs by Western blot analysis; type: functional, cell-based; settings: dose 0.1-1000 nM
[21] = test system: JeKo-1; assay: Effect on GSPT1 level in human JeKo-1 cells at 0.1 to 1000 nM incubated for 8 hrs by Western blot analysis; type: functional, cell-based; settings: dose 0.1-1000 nM
[22] = molecular target: T1, Protein cereblon/Tyrosine-protein kinase BTK; assay: PROTAC activity at CRBN/BTK in human JeKo-1 cells assessed as BTK degradation at 10 nM incubated for 24 hrs in presence of MLN-4924 by Western blot analysis; type: cell-based
[23] = Microsomal stability in human liver microsomes assessed as intrinsic clearance in liver measured up to 60 mins in presence of NADPH by LC-MS/MS analysis; type: ADME, Microsome; settings: read-out: CLH
[24] = Cmax in mouse at 30 mg/kg, ip measured after 0.083 hrs by LC-MS/MS analysis; type: ADME, organism-based; settings: in vivo
[25] = molecular target: T1, Protein cereblon/Tyrosine-protein kinase BTK; assay: PROTAC activity at CRBN/BTK in human JeKo-1 cells assessed as hook effect up to 1 uM incubated for 24 hrs by Western blot analysis; type: cell-based
[26] = molecular target: T1, Protein cereblon/Tyrosine-protein kinase BTK; assay: PROTAC activity at CRBN/BTK in human JeKo-1 cells assessed as BTK degradation at 100 nM incubated for 24 hrs by Western blot analysis relative to control; type: cell-based
[27] = Microsomal stability in human liver microsomes assessed as compound remaining measured up to 60 mins by LC-MS/MS analysis; type: ADME, Microsome; settings: read-out: Stability
[28] = AUC (0 to t) in mouse at 2 mg/kg, iv measured for 0.083 to 24 hrs by LC-MS/MS analysis; type: ADME, organism-based; settings: in vivo, time 0.083-24 hrs
[29] = Microsomal stability in human liver microsomes assessed as compound remaining measured up to 60 mins in presence of NADPH by LC-MS/MS analysis; type: ADME, Microsome; settings: read-out: Stability
[30] = Cytotoxicity against human TMD8 cells harboring wild-type BTK assessed as inhibition of cell viability incubated for 5 days by CCK8 assay; type: functional, cell-based; settings: TMD8, 120 h
[31] = molecular target: T1, Protein cereblon/Tyrosine-protein kinase BTK; assay: PROTAC activity at CRBN/BTK in human TMD8 cells assessed as BTK degradation measured after 24 hrs by Western blot analysis; type: cell-based; settings: for Activity: dose 0.1-1000 nM

| Structure (SMILES) | Activity [2] [%] | DC50 [3] [nM] | Activity [4] | Activity [5] | half-life [6] [h] | Activity [7] | microsomal CLint [8] [µL/min/mg] | Activity [11] | DC50 [13] [nM] | Activity [13] | Activity [14] | IC50 [15] [nM] | Activity [16] [%] | Activity [18] [%] | Activity [20] | Activity [21] | Activity [22] | CLint scaled [23] [mL/min/kg] | Activity [25] | Activity [26] [%] | further results |
| --- | --- | --- | --- | --- | --- | --- | --- | --- | --- | --- | --- | --- | --- | --- | --- | --- | --- | --- | --- | --- | --- |
| O=C1CCC(c2ccc(N3CCC(CCN4CCC(CC(=O)N[C@H]5CC[C@H](Nc6ncnc7[nH]cc(C(=O)c8ccc(Oc9ccccc9)cc8)c67)C5)CC4)CC3)nc2)C(=O)N1 (stereo partly drawn) | 89 | 4.3 | Dose-dependent-effect | Dose-dependent-effect | > 2.42 | inactive | < 9.6 | Time-dependent-effect; Compound Exhibited Significant Reduction At 1 Hr | 2.9 | Dose-dependent-effect | inactive | 18.2 | 94 | 100 | inactive | inactive | inactive | < 8.6 | inactive | 91 | Activity [1]: Non-toxic; Activity [9]: Active; Activity [10]: Active; Activity [12]: Non-toxic; concentration at 24 h [17]: > 0.1 µM; Activity [19]: Active; Cmax [24]: 3.67 µM; remaining at 1 h [27]: 79.3%; AUC(0-t) [28]: 1730 ng·h/mL; remaining at 1 h [29]: 106%; IC50 [30]: 9.9 nM; DC50 [31]: 2.8 nM; Activity [31]: Dose-dependent-effect |
| O=C1CCC(c2ccc(N3CCC(CCN4CCC(CC(=O)N[C@H]5CC[C@H](Nc6ncnc7[nH]cc(C(=O)c8ccc(Oc9ccccc9)cc8)c67)C5)CC4)CC3)cc2)C(=O)N1 (stereo partly drawn) | 78 | 5.6 | Dose-dependent-effect | Dose-dependent-effect | > 2.42 | inactive | < 9.6 | Time-dependent-effect; Compound Exhibited Significant Reduction At 1 Hr | 1.7 | Dose-dependent-effect | inactive | 26.5 | 81 | 100 | inactive | inactive | inactive | < 8.6 | inactive | 85 | remaining at 1 h [27]: 99.8%; remaining at 1 h [29]: 92.2%; IC50 [30]: 24.6 nM; DC50 [31]: 3.4 nM; Activity [31]: Dose-dependent-effect |
